These results are taken from publication PMC8151276, “An Integrated Approach toward NanoBRET Tracers for Analysis of GPCR Ligand Engagement” (Molecules, 2021).

This test concerns the target T1, HTR6 (Homo sapiens, UniProt P50406).
T1 construct: purchased Promega (in-house HiBiT-GPCR construct library, NanoBRET)
Put plainly: NanoBRET screen HiBiT-HTR6 in HEK293. The class given is binding. On the procedure:
Each tracer candidate was screened across the entire library of HiBiT-GPCR constructs using NanoBRET as the detection modality. As depicted in Figure 4A, the specificity of interactions was evaluated through decrease in BRET due to competitive displacement of a bound tracer by excess parental compound. Each tracer was analyzed for binding to each HiBiT-GPCR fusion in the absence and in the presence of competing parental compound. Briefly, HEK293 cells were transfected with HiBiT-GPCR constructs diluted into promoterless DNA to reduce expression and maximize translocation to the cell surface. Each tracer candidate was then screened at concentrations of 1 μM and 0.1 μM across cells expressing these fusions. Cells were treated for 1.5 h with tracer either alone or in the presence of 20 μM competing parental compound (i.e., control). BRET was measured upon addition of purified LgBiT and subsequent complementation with HiBiT genetically fused to a GPCR. The specificity of interactions was assessed through a decrease in BRET signal due to competitive displacement of the bound tracer. To further gauge the robustness of these interactions, the fold response over the control (i.e., BRETtracer/BRETcontrol) was calculated. We chose a 1.5-fold response, which translates to ≥7-fold signal over noise as the minimal threshold required to score an interaction as positive.
HiBiT-GPCR DNA constructs were diluted in 10 mM Tris pH 8 to a final concentration of 0.01 μg/μL, arrayed in 96-well plates and stored at −20 °C. For transfection, HEK293 cells were suspended in Opti-MEM (without phenol red) supplemented with 2% fetal bovine serum (Seradigm) and 100 units/mL penicillin–streptomycin (Gibco) at a final concentration of 220,000 cells/mL and dispensed into white 96-well plates at 90 μL/well. Subsequent transfections and screens were carried using an Agilent Bravo Automated Liquid Handling Platform. First, the 96-well HiBiT DNA arrays were diluted 25-fold in Opti-MEM (without serum or phenol red) to a final concentration of 0.0004 μg/μL and 20 μL of the diluted DNAs were transferred into new 96-well plates. Next, promoterless carrier DNA (1 μg/μL) was diluted 25-fold (0.04 μg/μL) and then dispensed into the diluted arrays at 20 μL/well. Following brief mixing, Viafect transfection reagent (Promega) diluted 16-fold into Opti-MEM was dispensed into the plates at 40 μL/well. After mixing by pipetting, plates were incubated for 10 min on the pipetting station deck. The DNA-transfection reagent complexes were then added to plates containing cells. To facilitate the screen, 10 μL of DNA-transfection reagent complexes were added in duplicates to the top 4 and bottom 4 rows, resulting in two identical 48-well arrays per plate. Plates with transfected cells were incubated for 18–20 h at 37 °C/5% CO2. A screen of each tracer across the entire library using two different concentrations requires duplicate plates of transfected cells. Depending on the number of tracers being screened, transfections can be scaled up using the same ratios. The next day, for each tracer, four 20× screening solutions in tracer dilution buffer (Promega) were prepared: two duplicates at final concentration of 20 μM and two duplicates at a final concentration of 2 μM. […] The four resulting solutions were diluted 4-fold in Opti-MEM without serum or phenol red to generate 5× solutions (5 µM and 0.5 µM tracer +/− 100 μM competing compound). To screen the library, a BioTek MultiFlo FX liquid dispenser was used to dispense 22.5 µL of tracer solution to the top 4 rows and 22.5 µL tracer + competing compound solution to the 4 bottom rows. Plates were briefly mixed on an orbital shaker and incubated for 1.5 h at room temperature. […] Plates were briefly mixed on an orbital shaker and incubated for 15 min to allow complementation.
(BRET reads energy transfer from a luciferase to a nearby fluorophore.)

T1 sequence (P50406 whole entry): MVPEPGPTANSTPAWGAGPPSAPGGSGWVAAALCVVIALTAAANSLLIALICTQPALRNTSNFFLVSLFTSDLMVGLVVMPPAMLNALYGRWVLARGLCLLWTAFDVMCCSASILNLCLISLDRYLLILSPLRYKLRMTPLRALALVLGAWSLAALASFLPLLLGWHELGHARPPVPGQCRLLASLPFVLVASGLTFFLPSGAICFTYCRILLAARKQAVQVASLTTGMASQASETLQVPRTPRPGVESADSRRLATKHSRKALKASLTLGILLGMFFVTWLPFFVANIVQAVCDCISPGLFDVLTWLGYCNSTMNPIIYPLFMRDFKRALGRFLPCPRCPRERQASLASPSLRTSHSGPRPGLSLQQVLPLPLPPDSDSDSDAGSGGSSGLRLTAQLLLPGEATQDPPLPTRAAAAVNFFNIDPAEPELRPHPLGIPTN

For the compound `O=C(CCOCCOCCOCCOCCNC(=O)CCc1ccc2n1[B-](F)(F)[N+]1=C(c3ccc[nH]3)C=CC1=C2)NCCCN1CCN(C2=Nc3ccccc3Oc3ccc(Cl)cc32)CC1` [Loxapine-a-2-NB590], the “NanoBRET Fold Response” value runs as follows: (HTR6, tracer 0.1μM) 1.04; (HTR6, tracer 1μM) 1.21.
Turning to `CCCn1c(=O)c2[nH]c(-c3ccc(OCC(=O)NCCNC(=O)CCOCCNC(=O)c4ccc(CNC(=O)CCc5ccc6n5[B-](F)(F)[N+]5=C(c7ccc[nH]7)C=CC5=C6)cc4)cc3)nc2n(CCC)c1=O` [XAC-3-NB590], the “NanoBRET Fold Response” value by setting is: (HTR6, tracer 0.1μM) 0.97; (HTR6, tracer 1μM) 0.93.
`CN(C)CCC=C1c2ccccc2CCc2ccc(C(=O)NCCNC(=O)CCOCCOCCOCCOCCNC(=O)CCc3ccc4n3[B-](F)(F)[N+]3=C(c5ccc[nH]5)C=CC3=C4)cc21` [Amitriptyline-a-2-NB590]: the “NanoBRET Fold Response” value is, setting by setting: (tracer at 0.1μM) 0.98; (tracer at 1μM) 0.97.
As to `COc1ccccc1N1CCN(CCCCN2C(=O)c3ccc(CNC(=O)CCOCCOCCOCCOCCNC(=O)CCc4ccc5n4[B-](F)(F)[N+]4=C(c6ccc[nH]6)C=CC4=C5)cc3C2=O)CC1` [NAN-190-2-NB590], the “NanoBRET Fold Response” value (HTR6, tracer 0.1μM) is given as 0.99 and the “NanoBRET Fold Response” value (HTR6, tracer 1μM) is reported as 1.04.
For the compound `O=C(CCc1ccc2n1[B-](F)(F)[N+]1=C(c3ccc[nH]3)C=CC1=C2)NCc1ccc(C(=O)NCCOCCOCCNCC(O)COc2cccc3ccccc23)cc1` (stereo not drawn) [Propranolol-3-NB590], the “NanoBRET Fold Response” value worked out at 1.10 (HTR6, 0.1μM) and 1.14 (HTR6, 1μM).
`COc1ccccc1N1CCN(CCCCN2C(=O)c3ccc(CNC(=O)CCOCCNC(=O)c4ccc(CNC(=O)CCc5ccc6n5[B-](F)(F)[N+]5=C(c7ccc[nH]7)C=CC5=C6)cc4)cc3C2=O)CC1` [NAN-190-3-NB590]: the “NanoBRET Fold Response” value (HTR6, tracer 0.1μM) came out at 0.94 and the “NanoBRET Fold Response” value (HTR6, tracer 1μM) is 1.19.
As for `O=C(CCc1ccc2n1[B-](F)(F)[N+]1=C(c3ccc[nH]3)C=CC1=C2)NCc1ccc(C(=O)NCCOCCC(=O)N[C@@H]2CC[C@@]3(O)[C@H]4Cc5ccc(O)c6c5[C@@]3(CCN4CC3CC3)[C@H]2O6)cc1` [Naltrexone-3-NB590], the “NanoBRET Fold Response” value runs as follows: (HTR6, tracer 0.1μM) 0.77; (HTR6, tracer 1μM) 0.95.
For the compound `CCOC(=O)c1cc(C#N)c(N2CCC(C(=O)NS(=O)(=O)Cc3ccccc3/C=C/C(=O)NCCNC(=O)CCc3ccc4n3[B-](F)(F)[N+]3=C(c5ccc[nH]5)C=CC3=C4)CC2)nc1C` [AZD1283-1-NB590], the “NanoBRET Fold Response” value is, setting by setting: (HTR6, 0.1μM) 1.05; (HTR6, 1μM) 1.07.
`COc1ccc2[nH]c(-c3ccc(CNC(=O)CCOCCOCCOCCOCCNC(=O)CCc4ccc5n4[B-](F)(F)[N+]4=C(c6ccc[nH]6)C=CC4=C5)cc3)c(CCNC(C)=O)c2n1` [AzomelatoninICO9-2-NB590]: the “NanoBRET Fold Response” value runs as follows: (0.1μM tracer) 0.97; (1μM tracer) 0.95.
On to `CC(C)N(CC[C@H](c1ccccc1)c1cc(CCNC(=O)CCOCCOCCOCCOCCNC(=O)CCc2ccc3n2[B-](F)(F)[N+]2=C(c4ccc[nH]4)C=CC2=C3)ccc1O)C(C)C` [Tolterodine-2-NB590], for which the “NanoBRET Fold Response” value by setting is: (HTR6, tracer 0.1μM) 0.89; (HTR6, tracer 1μM) 0.96.
Turning to `N#CN=C(NCCCOc1cccc(CN2CCCCC2)c1)NCCNC(=O)CCOCCOCCOCCOCCNC(=O)CCc1ccc2n1[B-](F)(F)[N+]1=C(c3ccc[nH]3)C=CC1=C2` [Aminopotentidine-2-NB590], the “NanoBRET Fold Response” value reads like this: (HTR6, tracer 0.1μM) 0.99; (HTR6, tracer 1μM) 1.03.
Take `COc1ccc2c(n1)c(CCNC(C)=O)cn2CCNC(=O)CCc1ccc2n1[B-](F)(F)[N+]1=C(c3ccc[nH]3)C=CC1=C2` [Azamelatonin-1-NB590]: the “NanoBRET Fold Response” value is, setting by setting: (0.1μM tracer) 0.87; (1μM tracer) 0.87.
With `CN(CCC=C1c2ccccc2CCc2ccccc21)C(=O)CCOCCOCCOCCOCCNC(=O)CCc1ccc2n1[B-](F)(F)[N+]1=C(c3ccc[nH]3)C=CC1=C2` [Amitriptyline-e-2-NB590], the “NanoBRET Fold Response” value (tracer at 1μM) is 1.01.
Consider `N#CN/C(=N\CCNC(=O)c1ccc(N)cc1)NCCCOc1cccc(CN2CCCCC2)c1` [Aminopotentidine (unmodified)], for which the “NanoBRET Fold Response” value is, setting by setting: (HTR6, other tracers/Aminopotentidine (unmodified), 0.1μM) 1.03; (HTR6, other tracers/Aminopotentidine (unmodified), 1μM) 1.38.
For the compound `CC(C)N(CC[C@H](c1ccccc1)c1cc(CCNC(=O)c2ccc(CNC(=O)CCc3ccc4n3[B-](F)(F)[N+]3=C(c5ccc[nH]5)C=CC3=C4)cc2)ccc1O)C(C)C` [Tolterodine-BZ-NB590], the “NanoBRET Fold Response” value runs as follows: (HTR6, tracer 0.1μM) 0.96; (HTR6, tracer 1μM) 1.05.
For `O=C(CCc1ccc2n1[B-](F)(F)[N+]1=C(c3ccc[nH]3)C=CC1=C2)NCCOCCOCCNC(=O)OCCOCCN1CCN(C2=Nc3ccccc3Sc3ccccc32)CC1` [Quetiapine-a-2-NB590], the “NanoBRET Fold Response” value is given as 0.90 (HTR6, tracer 0.1μM) and 0.98 (HTR6, tracer 1μM).
Taken in the same sequence, the figures for `Cc1cc2c(s1)Nc1ccccc1N=C2N1CCN(CCCNC(=O)CCOCCOCCOCCOCCNC(=O)CCc2ccc3n2[B-](F)(F)[N+]2=C(c4ccc[nH]4)C=CC2=C3)CC1` [Olanzapine-a-2-NB590] were 1.09 and 1.15.
For `CN(C)CCC=C1c2ccccc2CCc2ccc(C(=O)NCCNC(=O)CCOCCOCCOCCOCCNC(=O)CCc3ccc4n3[B-](F)(F)[N+]3=C(c5ccc[nH]5)C=CC3=C4)cc21` [Amitriptyline-b-2-NB590], the “NanoBRET Fold Response” value runs as follows: (tracer at 0.1μM, listed as amitriptyline-b-2-NB590) 1.11; (tracer at 1μM, listed as amitriptyline-b-2-NB590) 1.11.
On to `O=C(CCOCCOCCOCCOCCNC(=O)CCc1ccc2n1[B-](F)(F)[N+]1=C(c3ccc[nH]3)C=CC1=C2)NCCCN1CCN(C2=Nc3cc(Cl)ccc3Nc3ccccc32)CC1` [Clozapine-a-2-NB590], for which the “NanoBRET Fold Response” value by setting is: (HTR6, 0.1μM tracer) 1.49; (HTR6, 1μM tracer) 2.05.
With `Cc1nc2n(c(=O)c1CCN1CCC(c3noc4cc(F)ccc34)CC1)CCCC2OC(=O)NCCOCCOCCOCCOCCNC(=O)CCc1ccc2n1[B-](F)(F)[N+]1=C(c3ccc[nH]3)C=CC1=C2` (stereo not drawn) [Risperidone-2-NB590], the “NanoBRET Fold Response” value worked out at 1.00 (HTR6, tracer 0.1μM) and 1.34 (HTR6, tracer 1μM).
